The subject of test [1] is MCF-7 MDR Doxorubicin resistant cells. Kind of test: Epi-fluorescent microscopy of doxorubicin delivery and retention.
In test [2] the test system is SKOV-3 TR resistant Ovarian cancer cells. Kind of test: cells. The test is classed as cell-based. As for the experimental part:
Human ovarian cancer (SKOV-3 TR) resistant cells were cultured using the same protocol described for culturing SKOV-3 TR resistant cells in Example 8 above. Cultured cells (SKOV-3 TR) were incubated with bispecific anti-Her-2 Affibody-anti-DTPA antibody at a concentration of 20 μg/ml for 24 hours at 37° C. […] After 24-48 h incubation at 37° C., viability was assessed by Trypan Blue exclusion test using CellTiter Blue® (Promega, Madison, Wis.) following the manufacturer's protocol as described above in Example 8.
SKOV-3 sensitive and SKOV-3 TR resistant Ovarian cancer cells were cultured using the same protocol described in Examples 8 and 9 above. Cultured cells were incubated with bispecific anti-Her-2 Affibody-anti-DTPA antibody.

Test [3] relates to SKOV-3 sensitive Ovarian cancer cells. Description: cells. The conditions noted are these: Homo sapiens, SK-OV-3, read-out: IC50 value in SKOV-3 sensitive cells.
Description: (§1) Human ovarian cancer (SKOV-3) sensitive cells were grown in six well plates. Aliquots of 5000 cells/well were seeded in the cell culture treated 96 well plates and were grown for 24 hours. Cultured cells (SKOV-3) were incubated with bispecific anti-Her-2 Affibody-anti-DTPA antibody at a concentration of 20 or 40 μg/ml for 24 hours at 37° C. […] After 24 h incubation at 37° C., viability was assessed by Trypan Blue exclusion test using CellTiter Blue® (Promega, Madison, Wis.) following the manufacturer's protocol. Briefly, media was removed from plates containing cells incubated with agent-polymer conjugates. The plates were washed 2× with 200 μl of complete medium and then incubated with 50 μl of 1:50 dilution of CellTiter Blue® reagent for 2 hours. Cell viability was then evaluated by measuring the fluorescence (excitation 530 nm, emission 590 nm) using a Synergy HT multi-21 detection microplate reader (Biotek, Winooski, Vt.). Cells treated with complete media alone were used as controls to calculate the 100% cell viability and the studies were carried out in triplicates in at least 3 different assays. […] The above studies were repeated for 48 h incubation time.
Test [4] has the same test system. The conditions noted are these: cells pretargeted with anti-HER2/neu affibody, FIG. 7.
Description: as §1

≈ marks a conversion by molar mass, not a printed value.

For the molecule “DTPA-Doxorubicin-Poly Glutamic acid [D-Dox-PGA]”, in test [1] (pretargeted with bispecific biotinylated-anti-DTPA antibody, 1 h, then Dox free media 4 h, FIG. 8C), the “Doxorubicin retention in cells” value was “more Dox is retained”.

Take `COc1cccc2c1C(=O)c1c(O)c3c(c(O)c1C2=O)C[C@@](O)(C(=O)CO)C[C@@H]3O[C@H]1C[C@H](N)[C@H](O)[C@H](C)O1` [free Dox, doxorubicin]: the “Doxorubicin fluorescence in cells” value in test [1] (15 μg/ml, incubated 5 h, FIG. 8A) is reported as “nuclear sequestration”. The “Doxorubicin uptake in cells” value in test [1] (incubated 1 h, then Dox free medium 4 h, FIG. 8B) is reported as “less Dox uptake occurred”.

The IC50 is the midpoint of a concentration-inhibition curve. As for `CC(=O)O[C@H]1C(=O)[C@@]2(C)[C@H]([C@H](OC(=O)c3ccccc3)[C@]3(O)C[C@H](OC(=O)[C@H](O)[C@@H](NC(=O)c4ccccc4)c4ccccc4)C(C)=C1C3(C)C)[C@]1(OC(C)=O)CO[C@@H]1C[C@@H]2O` [free PTXL, Paclitaxel], the IC50 was found to be 0.936 µg/mL (≈ 1.1 µM) in test [2] (Homo sapiens, SKOV3TR, free drug, FIG. 7) and 0.089 µg/mL (≈ 0.104 µM) in test [3]. For the same molecule, the “IC50 in SKOV-3 TR resistant cells relative to SKOV-3 sensitive cells” value in test [2] (ratio resistant/sensitive) is listed as “about 10 times higher”.

“DTPA-Paclitaxel-Poly Glutamic acid [D-PTXL-PGA]”: the “Amount needed to obtain 50% cell killing in SKOV-3 TR cells relative to free PTXL” value in test [2] (SKOV-3 TR cells) is reported as 5 times less. Also, the “IC50 value in paclitaxel resistant ovarian cancer cells” value in test [2] (cells pretargeted with anti-HER2/neu affibody, FIG. 7) was found to be 0.069 µg/mL. The “Concentration needed to obtain 50% cell killing in SKOV-3 TR resistant relative to SKOV-3 sensitive cells” value in test [2] (ratio resistant/sensitive) worked out at 2 time more. Besides, the “IC50 value in paclitaxel sensitive ovarian cancer cells” value in test [4] was found to be 0.089 µg/mL.

(Values after patent US20160310613A1, “METHODS AND COMPOSITIONS FOR OVERCOMING DRUG-RESISTANCE IN CANCER BY TARGETED DELIVERY OF PRO-DRUG-NANO-POLYMERS” (priority 2015, published 2016).)
